Data: patent US20070167377A1, “Inhibitors of glycinamide ribonucleotide transformylase” (priority 2002, published 2007)
“Also recorded” adds a separate entry of the source. Where two headings read alike, the source gives them in different places. Each block holds one compound with its values, some of them ahead of it.

Tests used:
E. coli GAR Tfase [1] = molecular target: T1, E. coli GAR Tfase (Escherichia coli, UniProt P08179); test: E. coli GAR Tfase inhibition; assay type: biochemical; settings: for fold less potent than the corresponding monoglutamate: α-pentaglutamate vs monoglutamate (25 vs 3, 26 vs 15)
Method: (§1) GAR and AICAR Tfase inhibition studies were conducted as previously detailed^28 with the exception that the AICAR Tfase inhibition was conducted in the absence of 5 mM β-mercaptoethanol and screened with 10 nM enzyme, […] inhibitor and […] of cofactor. The DHFR inhibition study was conducted as previously detailed with 10 nM enzyme, […] H2F, […] NADPH and […] inhibitor.
The Ki values for the folate analogues were measured as previously described (Boger, D. L., et al., Bioorg. Med. Chem. 1997, 5, 1817-1830). Briefly, each compound was dissolved in dimethyl sulfoxide (DMSO) and then diluted in assay buffer. […] Thus, all assays were conducted by mixing 10 μM 10-formyl-5,8-dideazafolate (fDDF), 20 μM inhibitor in total volume of 1 mL buffer (0.1 M HEPES, pH 7.5) at 26° C., and the reaction initiated by the addition of 76 nM E. coli or human GAR Tfase. The assay monitors the deformylation of fDDF (Δε=18.9 mM^−1 cm^−1 at 295 nm) resulting from the transfer of the formyl group to β-GAR.

[2] = molecular target: T2, recombinant human GAR Tfase (rhGAR Tfase) (Homo sapiens, UniProt P22102); test: Recombinant human GAR Tfase inhibition; assay type: biochemical; settings: for potency increase of γ-pentaglutamate over monoglutamate: 21 vs 3, 22 vs 15
T2 construct: includes residues 808-1010 from the human trifunctional enzyme (purD-purM-purN); hexa-histidine (C); made in house; host or cells: E. coli BL21 (DE3) Gold, pet22b vector
T2 sequence (P22102 808-1010): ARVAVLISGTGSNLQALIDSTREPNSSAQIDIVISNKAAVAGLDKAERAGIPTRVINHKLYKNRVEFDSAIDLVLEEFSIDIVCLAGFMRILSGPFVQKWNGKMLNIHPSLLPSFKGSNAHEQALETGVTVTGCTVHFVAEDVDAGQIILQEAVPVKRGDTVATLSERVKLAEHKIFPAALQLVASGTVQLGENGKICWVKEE
Method: The gene was subcloned into the pet22b vector using the Ndel/Xhol cloning site with ahexa-histidine tag at the C-terminus. The plasmid was transformed into the E. coli expression strain BL21 (DE3) Gold. […] The purified protein was used in the inhibition assays, cytotoxic assays and crystallization experiments.
Briefly, each compound was dissolved in dimethyl sulfoxide (DMSO) and then diluted in assay buffer.

CCRF-CEM cell line [3] = test: CCRF-CEM cytotoxic assay; assay type: cell-based, human; settings: for IC50: Homo sapiens
Method: (§2) The cytotoxic activity of the compounds was measured using CCRF-CEM human leukemia cells, as described previously (Boger, D. L., et al., Bioorg. Med. Chem. 1997, 5, 1847-1852). Two mutant cell lines, CCRF-CEM/MTX and CCRF-CEM/FPGS^− were used to determine the dependence on the reduced folate active transport system and folylpolyglutamate synthetase (FPGS), respectively (Jansen, G., et al., Cancer Res. 1989, 49, 2455-2459).

CCRF-CEM/MTX cell line = test: Cytotoxic assay, reduced folate carrier deficient mutant; assay type: cell-based, human; settings: impaired reduced folate carrier; for IC50: Homo sapiens
Method: as §2

[4] = test system: CCRF-CEM/FPGS^− cell line; test: Cytotoxic assay, FPGS deficient mutant; assay type: cell-based, human; settings: lacks folylpolyglutamate synthase
Method: as §2

Chemical stability = assay type: physicochemical
human AICAR Tfase = human AICAR Tfase (Homo sapiens, UniProt P31939); test: AICAR Tfase inhibition; assay type: biochemical; settings: for fold enhanced binding affinity / more potent than the corresponding monoglutamate: 21 vs 3, 22 vs 15, 26 vs 15
Method: as §1

DHFR = DHFR (Escherichia coli, UniProt P0ABQ4); test: DHFR inhibition (101, 102); assay type: biochemical; settings: DHFR
[5] = molecular target: thymidylate synthetase (TS) (Homo sapiens, UniProt P04818); test: Thymidylate synthetase inhibition; assay type: biochemical; settings: TS
E. coli GAR Tfase [6] = molecular target: T1, E. coli GAR Tfase; settings: 10-formyl-TDAF, earlier studies; cited from earlier work
CCRF-CEM cell line [7] = settings: earlier studies; cited from earlier work
[8] = earlier studies; cited from earlier work
[9] = purines (hypoxanthine) absent in the media
[10] = media supplemented with a purine

SMILES: Nc1nc(N)c(CCCC(C=O)c2ccc(C(=O)N[C@@H](CCC(=O)O)C(=O)O)cc2)c(=O)[nH]1 (some centres unmarked) [Compound 3]
Ki (E. coli GAR Tfase [1]; E. coli GAR Tfase): 6 µM
Ki [2]: 14 nM
IC50 (CCRF-CEM cell line [3]; [9]): 60 nM
cytotoxic activity (in words) (CCRF-CEM cell line [3]; [10]): no activity
IC50 (CCRF-CEM/MTX cell line): > 100 µM
cytotoxic activity (in words) (CCRF-CEM/MTX cell line): lack of cytotoxic activity; also recorded: lost activity
cytotoxic activity (in words) [4]: inactivity; also recorded: lost cytotoxic activity
chemical stability (in words) (Chemical stability): chemical instability; also recorded: facile oxidative decarbonylation

SMILES: Nc1nc(N)c(CCCC(=O)c2ccc(C(=O)N[C@@H](CCC(=O)O)C(=O)O)cc2)c(=O)[nH]1 [Compound 14, N-{4-[4-(2,4-Diamino-6(1H)-pyrimidinon-5-yl)-1-oxo-but-1-yl]benzoyl}-L-glutamic Acid]
inhibition of / binding affinity for E. coli GAR Tfase (in words) (E. coli GAR Tfase [1]): significantly less active
inhibition of AICAR Tfase (in words) (human AICAR Tfase): inactive
IC50 (CCRF-CEM cell line [3]; purines absent in the media): < 200 nM
IC50 (CCRF-CEM/MTX cell line): > 100 µM
cytotoxic activity (in words) (CCRF-CEM/MTX cell line): lack of cytotoxic activity
cytotoxic activity (in words) [4]: inactivity

SMILES: CN(C)N=CC(CCCc1c(N)nc(N)[nH]c1=O)c1ccc(C(=O)N[C@@H](CCC(=O)O)C(=O)O)cc1 (stereo partly drawn) [Compound 15, N{4-[5-(2,4-Diamino-6(1H)-pyrimidinon-5-yl)-1-(dimethylhydrazono)pent-2-yl]benzoyl}-L-glutamic Acid]
Ki ([2]; rhGAR Tfase, read-out: Ki): 170 nM
fold less effective than 3 (human AICAR Tfase; 15 vs 3): 30 fold
IC50 (CCRF-CEM/MTX cell line): > 100 µM
cytotoxic activity (in words) (CCRF-CEM/MTX cell line): lack of cytotoxic activity
cytotoxic activity (in words) [4]: inactivity; also recorded: lost cytotoxic activity

SMILES: Nc1nc(N)c(CCCC(CO)c2ccc(C(=O)N[C@@H](CCC(=O)O)C(=O)O)cc2)c(=O)[nH]1 (stereo partly drawn) [Compound 17, N-{4-[5-(2,4-Diamino-6(1H)-pyrimidinon-5-yl)-1-hydroxypent-2-yl]benzoyl}-L-glutamic Acid]
inhibition of / binding affinity for E. coli GAR Tfase (in words) (E. coli GAR Tfase [1]): significantly less active
inhibition of AICAR Tfase (in words) (human AICAR Tfase): inactive
IC50 (CCRF-CEM/MTX cell line): > 100 µM
cytotoxic activity (in words) (CCRF-CEM/MTX cell line): lack of cytotoxic activity
cytotoxic activity (in words) [4]: inactivity

SMILES: Nc1nc(N)c(CCCC(C=O)c2ccc(C(=O)N[C@@H](CCC(=O)N[C@@H](CCC(=O)N[C@@H](CCC(=O)N[C@@H](CCC(=O)N[C@@H](CCC(=O)O)C(=O)O)C(=O)O)C(=O)O)C(=O)O)C(=O)O)cc2)c(=O)[nH]1 (stereo partly drawn) [Compound 21, N-{4-[5-(2,4-Diamino-6(1H)-pyrimidinon-5-yl)-1-formyl-but-2-yl]benzoyl}-L-γ-glutamyl-L-γ-glutamyl-L-γ-glutamyl-L-γ-glutamyl-L-γ-glutamic Acid]
inhibition of / binding affinity for E. coli GAR Tfase (in words) (E. coli GAR Tfase [1]): only marginal enhanced binding affinity
potency increase of γ-pentaglutamate over monoglutamate [2]: did not enhance
fold enhanced binding affinity / more potent than the corresponding monoglutamate (human AICAR Tfase): 4 fold
cytotoxic activity (in words) (CCRF-CEM cell line [3]): little or no cytotoxic activity

SMILES: CN(C)N=CC(CCCc1c(N)nc(N)[nH]c1=O)c1ccc(C(=O)N[C@@H](CCC(=O)N[C@@H](CCC(=O)N[C@@H](CCC(=O)N[C@@H](CCC(=O)N[C@@H](CCC(=O)O)C(=O)O)C(=O)O)C(=O)O)C(=O)O)C(=O)O)cc1 (stereo partly drawn) [Compound 22, N{4-[5-(2,4-Diamino-6(1H)-pyrimidinon-5-yl)-1-(dimethylhydrazono)pent-2-yl]benzoyl}-L-γ-glutamyl-L-γ-glutamyl-L-γ-glutamyl-L-γ-glutamyl-L-γ-glutamic Acid]
inhibition of / binding affinity for E. coli GAR Tfase (in words) (E. coli GAR Tfase [1]): only marginal enhanced binding affinity
potency increase of γ-pentaglutamate over monoglutamate [2]: 5 fold
fold enhanced binding affinity / more potent than the corresponding monoglutamate (human AICAR Tfase): 140 fold
cytotoxic activity (in words) (CCRF-CEM cell line [3]): little or no cytotoxic activity

SMILES: Nc1nc(N)c(CCCC(C=O)c2ccc(C(=O)N[C@@H](CCC(=O)O)C(=O)N[C@@H](CCC(=O)O)C(=O)N[C@@H](CCC(=O)O)C(=O)N[C@@H](CCC(=O)O)C(=O)N[C@@H](CCC(=O)O)C(=O)O)cc2)c(=O)[nH]1 (stereo partly drawn) [Compound 25, N{4-[5-(2,4-Diamino-6(1H)-pyrimidinon-5-yl)-1-formyl-but-2-yl]benzoyl}-L-α-glutamyl-L-α-glutamyl-L-α-glutamyl-L-α-glutamyl-L-α-glutamic Acid]
fold less potent than the corresponding monoglutamate (E. coli GAR Tfase [1]): 3 fold
fold less potent than the aldehyde monoglutamate 3 (human AICAR Tfase; 25 vs 3): 16 fold
cytotoxic activity (in words) (CCRF-CEM cell line [3]): little or no cytotoxic activity

SMILES: CN(C)N=CC(CCCc1c(N)nc(N)[nH]c1=O)c1ccc(C(=O)N[C@@H](CCC(=O)O)C(=O)N[C@@H](CCC(=O)O)C(=O)N[C@@H](CCC(=O)O)C(=O)N[C@@H](CCC(=O)O)C(=O)N[C@@H](CCC(=O)O)C(=O)O)cc1 (stereo partly drawn) [Compound 26, N{4-[5-(2,4-Diamino-6(1H)-pyrimidinon-5-yl)-1-(dimethylhydrazono)pent-2-yl]benzoyl}-L-α-glutamyl-L-α-glutamyl-L-α-glutamyl-L-α-glutamyl-L-α-glutamic Acid]
orders of magnitude less potent than the corresponding γ-pentaglutamate 22 (E. coli GAR Tfase [1]; 26 vs 22): 1-2 orders of magnitude
fold less potent than the corresponding monoglutamate (E. coli GAR Tfase [1]): 4 fold
fold enhanced binding affinity / more potent than the corresponding monoglutamate (human AICAR Tfase): 4 fold
orders of magnitude less potent than the corresponding γ-pentaglutamate 22 (human AICAR Tfase; 26 vs 22): 1-2 orders of magnitude
cytotoxic activity (in words) (CCRF-CEM cell line [3]): little or no cytotoxic activity

SMILES: Nc1nc(N)c(CCCC(c2ccc(C(=O)N[C@@H](CCC(=O)O)C(=O)O)cc2)C(O)C(F)(F)F)c(=O)[nH]1 (stereo partly drawn) [Compound 102, N-{4-[4-(2,4-Diamino-6-oxo-1,6-dihydropyrimidin-5-yl)-1-(2,2,2-trifluoro-1-hydroxy-ethyl)butyl]benzoyl}-L-glutamic acid]
times less potent than 10-CF3CO-DDACTHF ([2]; comparator 101): ca. 50 times
Ki ([2]; rhGAR Tfase, read-out: Ki): 900 nM
inhibition of AICAR Tfase (in words) (human AICAR Tfase): inactivity
Ki (human AICAR Tfase; AICAR Tfase): > 100 µM
Ki (DHFR): > 100 µM
Ki [5]: > 100 µM
IC50 (CCRF-CEM cell line [3]; purines absent in the media): 1100 nM
cytotoxic activity (in words) (CCRF-CEM/MTX cell line): lost activity
cytotoxic activity (in words) [4]: lacked or lost activity

SMILES: Nc1nc2ccc(CC(C=O)c3ccc(C(=O)N[C@@H](CCC(=O)O)C(=O)O)cc3)cc2c(=O)[nH]1 (some centres unmarked) [Compound 103, 10-formyl-5,8,10-trideazafolic acid]
Ki (E. coli GAR Tfase [6]): 260 nM
cytotoxic activity (in words) (CCRF-CEM cell line [7]): failed to exhibit effective cytotoxic activity
chemical stability (in words) [8]: poor stability; also recorded: facile oxidative decarbonylation

inhibition of GAR Tfase (in words) [2]: lack of inhibition
SMILES: Nc1nc(N)c(CCCC(C(=O)C(F)(F)F)c2ccc(C(=O)O)cc2)c(=O)[nH]1 (centres unmarked) [Compound 111, 4-[4-(2,4-diamino-6-oxo-1,6-dihydropyrimidin-5-yl)-1-(2,2,2-trifluoro-acetyl)butyl]benzoic acid]

SMILES: Nc1nc(N)c(CCCCc2ccc(C(=O)N[C@@H](CCC(=O)O)C(=O)O)cc2)c(=O)[nH]1 [DDACTHF, reference compound]
IC50 (CCRF-CEM cell line [3]; purines absent in the media): 2700 nM

SMILES: Nc1nc2c(c(=O)[nH]1)C[C@@H](CCc1ccc(C(=O)N[C@@H](CCC(=O)O)C(=O)O)cc1)CN2 [Lometrexol, (6R)-5,10-dideazatetrahydrofolate, reference compound]
IC50 (CCRF-CEM cell line [3]; [9]): 230 nM
IC50 (CCRF-CEM cell line [3]; purines absent in the media): 150 nM
cytotoxic activity (in words) (CCRF-CEM cell line [3]; [10]): no activity
cytotoxic activity (in words) (CCRF-CEM/MTX cell line): lost activity
cytotoxic activity (in words) [4]: lacked or lost activity
